Test results taken from ChEMBL document CHEMBL4417634, “DNA2 inhibitors for cancer treatment” (2018).
Activity calls are given as the source filed them. The rule behind the calls is not given here.

Key:
[1] = test system: U2OS; assay: Induction of single-stranded DNA accumulation in human U2OS cells assessed as reduction in P-RPA foci at 50 uM; assay type: functional, cell-based
[2] = test system: Saccharomyces cerevisiae; assay: Potentiation of DNA damaging agent methyl methane sulfonate-induced cytotoxicity in yeast cells by dilution assay; assay type: functional, organism-based
[3] = test system: Saccharomyces cerevisiae; assay: Potentiation of DNA damaging agent methyl methane sulfonate-induced cytotoxicity in yeast cells deficient in rad27 by dilution assay; assay type: functional, organism-based
[4] = test system: Saccharomyces cerevisiae; assay: Potentiation of high temperature-induced cytotoxicity in yeast cells by dilution assay; assay type: functional, organism-based
[5] = test system: Saccharomyces cerevisiae; assay: Potentiation of high temperature-induced cytotoxicity in yeast cells deficient in rad27 by dilution assay; assay type: functional, organism-based
[6] = test system: HCT-116; assay: Cytotoxicity against human HCT116 cells assessed as reduction in cell viability at 10 to 10000 nM in presence of siFEN1 by tryphan blue staining based assay; assay type: functional
[7] = test system: HCT-116; assay: Cytotoxicity against human HCT116 cells assessed as reduction in cell viability at 10 to 10000 nM in presence of siEXO1 by tryphan blue staining based assay; assay type: functional
[8] = species on record: Mus musculus; assay: Cytotoxicity against dna2 (-/-) mouse MES cells assessed as cell survival relative to control; assay type: functional, cell-based
[9] = test system: MCF7; assay: Cytotoxicity against human MCF7 cells transfected with shDNA2 assessed as cell survival relative to control; assay type: functional, cell-based
[10] = test system: MCF-10A; assay: Cytotoxicity against human MCF10A cells assessed as reduction in cell viability incubated for 7 days; assay type: cell-based; settings: 168 h
[11] = test system: MCF7; assay: Cytotoxicity against human MCF7 cells assessed as reduction in cell viability incubated for 7 days; assay type: functional, cell-based; settings: MCF7, 168 h
[12] = test system: MDA-MB-231; assay: Cytotoxicity against human MDA-MB-231 cells assessed as reduction in cell viability incubated for 7 days; assay type: functional, cell-based; settings: MDA-MB-231, 168 h
[13] = test system: FHC; assay: Cytotoxicity against human FHC cells assessed as reduction in cell viability incubated for 7 days; assay type: cell-based; settings: 168 h
[14] = test system: DLD-1; assay: Cytotoxicity against human DLD1 cells assessed as reduction in cell viability incubated for 7 days; assay type: functional, cell-based; settings: DLD-1, 168 h
[15] = test system: HCT-8; assay: Cytotoxicity against human HCT8 cells assessed as reduction in cell viability incubated for 7 days; assay type: functional, cell-based; settings: HCT-8, 168 h
[16] = test system: HT-29; assay: Cytotoxicity against human HT-29 cells assessed as reduction in cell viability incubated for 7 days; assay type: functional, cell-based; settings: HT-29, 168 h
[17] = test system: HCT-116; assay: Cytotoxicity against human HCT116 cells assessed as reduction in cell viability incubated for 7 days; assay type: functional, cell-based; settings: HCT-116, 168 h
[18] = test system: WiDr; assay: Cytotoxicity against human WiDr cells assessed as reduction in cell viability incubated for 7 days; assay type: functional, cell-based; settings: 168 h
[19] = test system: RWPE-1; assay: Cytotoxicity against human RWPE1 cells assessed as reduction in cell viability incubated for 7 days; assay type: cell-based; settings: RWPE-1, 168 h
[20] = test system: PC-3; assay: Cytotoxicity against human PC3 cells assessed as reduction in cell viability incubated for 7 days; assay type: functional, cell-based; settings: PC-3, 168 h
[21] = test system: LNCaP C4-2; assay: Cytotoxicity against human C4-2 cells assessed as reduction in cell viability incubated for 7 days; assay type: functional, cell-based; settings: LNCaP C4-2, 168 h
[22] = test system: CWR22R; assay: Cytotoxicity against human 22Rv1 cells assessed as reduction in cell viability incubated for 7 days; assay type: functional, cell-based; settings: 22Rv1, 168 h
[23] = Cytotoxicity against human CWRR1 cells assessed as reduction in cell viability incubated for 7 days; assay type: functional, cell-based; settings: 168 h
[24] = test system: IMR-90; assay: Cytotoxicity against human IMR90 cells assessed as reduction in cell viability incubated for 7 days; assay type: cell-based; settings: IMR-90, 168 h
[25] = test system: A549; assay: Cytotoxicity against human A549 cells assessed as reduction in cell viability incubated for 7 days; assay type: functional, cell-based; settings: A549, 168 h
[26] = test system: NCI-H460; assay: Cytotoxicity against human NCI-H460 cells assessed as reduction in cell viability incubated for 7 days; assay type: functional, cell-based; settings: NCI-H460, 168 h
[27] = test system: NCI-H2030; assay: Cytotoxicity against human NCI-H2030 cells assessed as reduction in cell viability incubated for 7 days; assay type: functional, cell-based; settings: NCI-H2030, 168 h
[28] = test system: HCT-116; assay: Cell cycle arrest in human HCT116 cells assessed as accumulation at G1 phase at 10 uM incubated for 48 hrs by propidium iodide staining based flow cytometry (reference value: 76.2%); assay type: functional
[29] = test system: HCT-116; assay: Cell cycle arrest in human HCT116 cells assessed as accumulation at S phase at 10 uM incubated for 48 hrs by propidium iodide staining based flow cytometry (reference value: […]); assay type: functional
[30] = test system: HCT-116; assay: Cell cycle arrest in human HCT116 cells assessed as accumulation at G2/M phase at 10 uM incubated for 48 hrs by propidium iodide staining based flow cytometry (reference value: […]); assay type: functional
[31] = test system: HCT-116; assay: Cell cycle arrest in human HCT116 cells assessed as accumulation at G1 phase at 50 uM incubated for 48 hrs by propidium iodide staining based flow cytometry (reference value: 76.2%); assay type: functional
[32] = test system: HCT-116; assay: Cell cycle arrest in human HCT116 cells assessed as accumulation at S phase at 50 uM incubated for 48 hrs by propidium iodide staining based flow cytometry (reference value: […]); assay type: functional
[33] = test system: HCT-116; assay: Cell cycle arrest in human HCT116 cells assessed as accumulation at G2/M phase at 50 uM incubated for 48 hrs by propidium iodide staining based flow cytometry (reference value: […]); assay type: functional
[34] = biological target: Flap endonuclease 1 (Homo sapiens) (UniProt P39748)
[35] = biological target: Exonuclease 1 (Homo sapiens) (UniProt Q9UQ84)
[36] = test system: HCT-116; assay: Cytotoxicity against human HCT116 cells assessed as reduction in cell viability at 10 to 10000 nM in presence of siMRE11 by tryphan blue staining based assay; assay type: functional
[37] = species on record: Homo sapiens; assay: Suppression of 125 nM cisplatin-induced cytotoxicity in FANCD2 (-/-) human PD20 cells assessed as increase in cell survival at 10 uM; assay type: functional, cell-based
[38] = test system: U2OS; assay: Induction of single-stranded DNA accumulation in human U2OS cells assessed as reduction in P-RPA foci at 20 uM; assay type: functional, cell-based

Sequence of Flap endonuclease 1 (Homo sapiens) (P39748 whole entry): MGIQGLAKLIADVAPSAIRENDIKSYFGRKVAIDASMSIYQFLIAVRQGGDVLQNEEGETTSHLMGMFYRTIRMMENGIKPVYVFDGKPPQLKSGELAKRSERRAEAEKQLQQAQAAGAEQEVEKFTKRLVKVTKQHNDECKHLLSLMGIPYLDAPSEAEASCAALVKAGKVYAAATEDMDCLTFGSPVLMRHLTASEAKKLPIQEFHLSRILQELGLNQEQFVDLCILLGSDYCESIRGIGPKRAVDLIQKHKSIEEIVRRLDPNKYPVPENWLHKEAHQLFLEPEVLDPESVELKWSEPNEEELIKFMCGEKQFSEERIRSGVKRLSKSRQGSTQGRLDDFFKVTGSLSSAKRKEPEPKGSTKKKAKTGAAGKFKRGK
Sequence of Exonuclease 1 (Homo sapiens) (Q9UQ84 whole entry): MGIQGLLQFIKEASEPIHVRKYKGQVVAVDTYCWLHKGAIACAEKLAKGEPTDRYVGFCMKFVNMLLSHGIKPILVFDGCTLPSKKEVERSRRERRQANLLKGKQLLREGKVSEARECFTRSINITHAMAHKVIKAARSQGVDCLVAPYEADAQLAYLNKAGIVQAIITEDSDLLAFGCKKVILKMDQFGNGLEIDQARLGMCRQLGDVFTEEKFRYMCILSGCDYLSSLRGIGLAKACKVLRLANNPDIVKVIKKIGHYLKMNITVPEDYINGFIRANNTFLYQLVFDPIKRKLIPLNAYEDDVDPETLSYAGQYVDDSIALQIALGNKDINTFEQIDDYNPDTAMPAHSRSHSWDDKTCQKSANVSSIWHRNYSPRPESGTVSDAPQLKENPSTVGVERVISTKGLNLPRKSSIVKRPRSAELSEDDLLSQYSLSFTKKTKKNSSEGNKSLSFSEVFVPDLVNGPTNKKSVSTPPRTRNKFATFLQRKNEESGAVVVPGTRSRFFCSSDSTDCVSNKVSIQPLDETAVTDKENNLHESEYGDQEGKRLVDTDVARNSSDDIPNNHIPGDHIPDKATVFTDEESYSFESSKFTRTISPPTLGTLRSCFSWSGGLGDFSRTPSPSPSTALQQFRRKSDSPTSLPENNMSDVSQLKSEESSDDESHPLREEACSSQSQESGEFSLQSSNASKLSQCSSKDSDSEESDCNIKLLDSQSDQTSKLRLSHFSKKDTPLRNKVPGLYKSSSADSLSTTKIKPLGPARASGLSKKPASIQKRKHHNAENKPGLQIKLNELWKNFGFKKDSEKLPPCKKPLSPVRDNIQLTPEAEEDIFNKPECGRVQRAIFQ

In the case of `N=C1NC(=O)/C(=C/c2ccc(O)cc2)S1`, the Activity [1] is reported as “inactive”.

With `CCCCNC(=O)c1c[nH]c2c([N+](=O)[O-])cccc2c1=O` the Activity [2] was “inactive”, the Activity [3] was “Active” and the Activity [4] was “inactive”. For the same compound, the Activity [5] was “Active”.

With `O=C(O)c1cnc2c([N+](=O)[O-])cccc2c1O` the Activity [6] was “Active”, the Activity [7] was “Active” and the Activity [8] was “Active”. The Activity [9] was “Active”, the IC50 [10] was 24.4 µM and the IC50 [11] was 7.2 µM. For the same compound, the IC50 [12] was 46.8 µM, the IC50 [13] was 75.2 µM and the IC50 [14] was 25.1 µM. The IC50 [15] was 27.5 µM, the IC50 [16] was 40.5 µM and the IC50 [17] was 24.2 µM. For the same compound, the IC50 [18] was 52.6 µM, the IC50 [19] was 78.8 µM and the IC50 [20] was 20.9 µM. The IC50 [21] was 19.7 µM, the IC50 [22] was 11.8 µM and the IC50 [23] was 15.7 µM. The IC50 [24] was 95.5 µM, the IC50 [25] was 23.6 µM and the IC50 [26] was 43.7 µM. For the same compound, the IC50 [27] was 17.7 µM, the Activity [28] was 66.9% and the Activity [29] was 13%. The Activity [30] was 12.6%, the Activity [31] was 54.1% and the Activity [32] was 17.2%. The Activity [33] was 28.1%, the inhibition [34] was “inactive” and the inhibition [35] was “inactive”. For the same compound, the Activity [36] was “Active”, the Activity [2] was “inactive” and the Activity [3] was “Active”. For the same compound, the Activity [4] was “inactive”, the Activity [5] was “Active” and the Activity [37] was “Active”. For the same compound, the Activity [38] was “inactive”.
